Experiments:
bone destruction = experiment: Micro-CT of femur, 5TMM model; type: in vivo, C57BL/KawRij mice; settings: 10 mg/kg for 4 weeks
Protocol: The cMYC-KRAS12V-induced plasmacytoma mouse model in BALB/c (GemPharmatech Co., Ltd., Nanjing, China) was established as previously described.[33] On day 28 or 35 post bone marrow transplantation, recipients received various treatments. The 5TMM mouse model was established as previously described.[55] The 5TGM1-luc cells were intravenously injected into 6-week-old C57BL/KawRij mice (Harlan Co. Netherlands) with 2 × 10^6 cells per mouse. After three weeks, mice were treated with vehicle or PM 10 mg/kg. Serum Ca^2+ levels were monitored weekly for three weeks after the start of administration. Kaplan-Meier survival curves were generated for each treatment group. Additionally, the 5TMM mouse model studying PM’s effects on immune response and bone destruction involved randomizing mice into vehicle and PM (10 mg/kg) groups one week after inoculation. T cell subsets were analyzed by flow cytometry 24 h after a single dose and 1 month after vehicle or PM treatment. The mice were sacrificed after 1 month of treatment, and the bone destruction was detected by Micro-CT.

SUDHL-4 = experiment: Cell viability CCK8; type: cell-based; settings: Homo sapiens, SU-DHL-4; SUDHL-4, 72 h; no unit in table; read-out: Antiproliferative activity IC50
Protocol: (§1) PM, panobinostat, Pom and DXM were dissolved in DMSO and stored at -20°C freezer. Cells were seeded at a density of 1.0-3.0 × 10^4 cells/well/100 μL in 96-well plates. After overnight incubation, cells were treated with the drug-containing culture medium for 24, 48, or 72 hours, and cell viability was measured using CCK8 (Oriscience, Chengdu, China) at the indicated time points with Biotek Cytation 3 at a wavelength of 450 nm. The IC50 values were calculated using GraphPad Prism 9.4.1, and Calcusyn 2.0 software was employed to calculate the CI values.

TMD-8 = experiment: Cell viability CCK8; type: cell-based; settings: Homo sapiens, TMD8; TMD-8, 72 h; no unit in table; read-out: Antiproliferative activity IC50
Protocol: as §1

Ramos = experiment: Cell viability CCK8; type: cell-based; settings: Homo sapiens, 72 h, no unit in table, read-out: Antiproliferative activity IC50
Protocol: as §1

RPMI-8226R = experiment: Cell viability CCK8; type: cell-based; settings: Homo sapiens, 72 h, no unit in table, read-out: Antiproliferative activity IC50
Protocol: as §1

OPM2 = experiment: Cell viability CCK8; type: cell-based; settings: Homo sapiens, OPM-2; OPM2, 72 h; no unit in table; read-out: Antiproliferative activity IC50
Protocol: as §1

AMO1 = experiment: Cell viability CCK8; type: cell-based; settings: Homo sapiens; AMO1, 72 h; no unit in table; read-out: Antiproliferative activity IC50
Protocol: as §1

MM1R = experiment: Cell viability CCK8; type: cell-based; settings: Homo sapiens, MM.1R, 72 h, no unit in table, read-out: Antiproliferative activity IC50
Protocol: as §1

NKYS = experiment: Cell viability CCK8; type: cell-based; settings: Homo sapiens, 72 h, no unit in table, read-out: Antiproliferative activity IC50
Protocol: as §1

[1] = Bone marrow micronucleus test; type: in vivo, NIH mice; settings: 20, 40, 60, 80 mg/kg i.v. daily for 3 days
Protocol: In this experiment, 90 SPF-grade NIH mice (half male and half female) were randomly divided into 7 groups: a negative control group (0.9% sodium chloride injection, intravenous injection, 10 mL/kg), an excipient control group (blank formulation, intravenous injection, 10 mL/kg), a positive control group (cyclophosphamide 40 mg/kg, intraperitoneal injection, 10 mL/kg), and four groups for intravenous injection of Purinostat Mesylate at low, medium, high, and highest doses (20, 40, 60, and 80 mg/kg, intravenous injection, 10 mL/kg). The negative control and positive control groups each consisted of 20 mice, while the other groups each consisted of 10 mice, with an equal number of males and females. Mice in each group were administered the specified doses once daily for 3 consecutive days, while the positive control group received only a single dose. Twenty to twenty-four hours after the last administration, all mice in each group were euthanized, and femoral bone marrow smears were prepared. The smears were stained with Giemsa and observed under an oil immersion microscope. For each mouse, 4000 polychromatic erythrocytes (PCEs) were counted to calculate the micronucleus incidence (‰), while 500 bone marrow erythrocytes were counted to determine the ratio of polychromatic erythrocytes to total erythrocytes.

For `CN(Cc1nc2c(N3CCOCC3)nc(-c3ccc(N)cc3)nc2n1C)c1ncc(C(=O)NO)cn1.CS(=O)(=O)O` [PM, 2-(((2-(4-Aminophenyl)-9-methyl-6-(4-morpholinyl)-9H-purine-8-yl)methyl)methylamino)-N-hydroxy-5-pyrimidine-carboxamide Mesylate], the “bone structure of femur (Micro-CT)” value (bone destruction) was “effectively prevented bone destruction and trabecular changes on the femoral surface”, the IC50 (SUDHL-4) was 0.73 ± 0.05 nM and the IC50 (TMD-8) was 0.99 ± 0.14 nM. The IC50 (Ramos) was 1.24 ± 0.47 nM, the IC50 (RPMI-8226R) was 2.02 ± 0.3 nM and the IC50 (OPM2) was 1.78 ± 0.13 nM. It also gave an IC50 (AMO1) of 1.78 ± 0.14 nM, an IC50 (MM1R) of 0.33 ± 0.01 nM and an IC50 (NKYS) of 0.77 ± 0.07 nM. For the same molecule, the “bone marrow micronucleus test result” value [1] was “negative”.
